Half-life, EC50 and IC50 data for 26 compounds are collected here from ChEMBL document CHEMBL5346914, “Optimization of carbazole carboxamide RORγt agonists: Challenges in improving the metabolic stability and maintaining the agonistic activity” (Eur J Med Chem, 2023).

A short description of data set [1]: Microsomal stability in mouse liver microsome assessed as half life at 1 uM preincubated for 10 mins followed by NADPH addition measured upto 60 mins by HPLC-MS/MS analysis. The class given is ADME. Conditions: liver microsomes, time < 70 min.
For data set [2], the target named is T1, Nuclear receptor ROR-gamma (Homo sapiens, UniProt P51449).
T1 sequence (P51449 whole entry): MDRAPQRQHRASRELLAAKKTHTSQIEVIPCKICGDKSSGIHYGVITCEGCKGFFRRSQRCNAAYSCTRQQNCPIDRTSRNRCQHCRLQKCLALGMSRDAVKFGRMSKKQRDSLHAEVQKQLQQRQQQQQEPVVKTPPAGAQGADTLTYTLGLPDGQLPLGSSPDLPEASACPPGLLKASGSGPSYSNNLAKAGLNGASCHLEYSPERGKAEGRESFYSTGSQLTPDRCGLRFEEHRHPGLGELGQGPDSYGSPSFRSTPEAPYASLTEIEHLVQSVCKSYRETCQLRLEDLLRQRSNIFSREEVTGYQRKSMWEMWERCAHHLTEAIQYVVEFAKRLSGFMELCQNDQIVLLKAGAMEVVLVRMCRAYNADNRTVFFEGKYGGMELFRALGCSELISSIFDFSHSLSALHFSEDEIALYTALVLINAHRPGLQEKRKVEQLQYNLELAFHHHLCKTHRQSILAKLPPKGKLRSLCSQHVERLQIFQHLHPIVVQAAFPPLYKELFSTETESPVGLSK
Kind of data set: Agonist activity at human RORgammat LBD (265 to 507 residues) expressed in Escherichia coli BL21(DE3) cells incubated for 1 hr FRET assay.

Data set [3] concerns the target T1, Nuclear receptor ROR-gamma. Put plainly: Agonist activity at Gal4-fused human RORgammat LBD expressed in HEK293T cells assessed as luciferase activity incubated for 16 to 20 hrs by luciferase reporter gene assay. The class given is cell-based.
In data set [4] the target is T1, Nuclear receptor ROR-gamma. Put plainly: Inverse agonist activity at human RORgammat LBD (265 to 507 residues) expressed in Escherichia coli BL21(DE3) cells incubated for 1 hr FRET assay.

With `CCn1c2ccc(CC3CC3)cc2c2cc(C(=O)N[C@H](COC)c3ccc(S(=O)(=O)CC)cc3)ccc21`, the half-life at 1 µM in data set [1] was determined as 40.8 min.

Regarding `CCn1c2ccc(CC3CC3)cc2c2cc(C(=O)NCc3ccc(S(=O)(=O)CC)cc3)ccc21`, the half-life at 1 µM in data set [1] was found to be 48.8 min.

For the compound `CCn1c2ccc(CC(C)C)cc2c2cc(C(=O)NCc3ccc(S(=O)(=O)CC)cc3)ccc21`, the half-life at 1 µM in data set [1] came to 26.9 min. Also, in data set [2], the 50% effective concentration (EC50) came to 10.9 nM.

For the compound `CCn1c2ccc(CC3CC3)cc2c2cc(C(=O)NCc3ccc(S(C)(=O)=O)cn3)ccc21`, the concentration for a half-maximal effect (EC50) in data set [2] was found to be 12.5 nM.

Take `CCn1c2ccc(OC(C)C)cc2c2cc(C(=O)NCc3ccc(S(=O)(=O)CC)cn3)ccc21`: the half-life at 1 µM in data set [1] was found to be 18.2 min. In data set [2], this compound yielded a concentration for a half-maximal effect (EC50) of 5.6 nM.

In the case of `CCn1c2ccc(C(=O)NCc3ccc(S(=O)(=O)CC)cc3)cc2c2c(OC(C)C)cccc21`, the response in data set [2] was half-maximal at 29.4 nM (EC50).

Turning to `CCn1c2ccc(OC(C)C)cc2c2cc(C(=O)NCc3ccc(S(C)(=O)=O)cc3)ccc21`, in data set [1], the half-life at 1 µM amounted to 14.8 min. The compound also yielded an EC50 in data set [2] of 12.1 nM.

On to `CCn1c2ccc(CC(C)(C)F)cc2c2cc(C(=O)NCc3ccc(S(=O)(=O)CC)cc3)ccc21`, for which the half-life at 1 µM in data set [1] amounted to 20.8 min. In addition, the EC50 in data set [2] is 10.3 nM.

With `CCn1c2ccc(OC3CCC3)cc2c2cc(C(=O)NCc3ccc(S(=O)(=O)CC)cc3)ccc21`, the half-life at 1 µM in data set [1] was 16.4 min.

As for `CCn1c2ccc(CC(C)C(F)(F)F)cc2c2cc(C(=O)NCc3ccc(S(=O)(=O)CC)cc3)ccc21` (stereo unspecified), the half-life at 1 µM in data set [1] was 26.2 min.

Regarding `CCn1c2ccc(OC(C)C)cc2c2cc(C(=O)NCc3ccc(S(=O)(=O)CC)cc3)ccc21`, the half-life at 1 µM in data set [1] stood at 8.7 min.

Take `CCS(=O)(=O)c1ccc(CNC(=O)c2ccc3c(c2)c2cc(CC4CC4)ccc2n3CCF)cc1`: in data set [1], the half-life at 1 µM was found to be 80.4 min. Also, the results for the EC50 in data set [2] and in data set [3] were 15.7 nM and 245 nM, respectively.

In turn, `CCn1c2ccc(CC3COC3)cc2c2cc(C(=O)NCc3ccc(S(=O)(=O)CC)cc3)ccc21` registered an IC50 in data set [4] of 6590 nM.

`CCn1c2ccc(CN(C)C)cc2c2cc(C(=O)NCc3ccc(S(=O)(=O)CC)cc3)ccc21` registered an EC50 in data set [2] of 181 nM.

For `CCn1c2ccc(CC3CC3)cc2c2cc(C(=O)NCc3ccc(S(=O)(=O)CC)cn3)ccc21`, it took 9.7 nM to reach a half-maximal effect in data set [2] (EC50).

As for `CCn1c2ccc(CC3CC3)cc2c2cc(C(=O)N[C@@H](COC)c3ccc(S(=O)(=O)CC)cc3)ccc21`, the half-life at 1 µM in data set [1] is over 154 min.

`CCS(=O)(=O)c1ccc(CNC(=O)c2ccc3c(c2)c2cc(OC(C)C)ccc2n3CCF)cc1`: the half-life at 1 µM in data set [1] was 14.1 min. This compound also came in with a 50% effective concentration (EC50) in data set [2] of 7.8 nM.

Compound `CCn1c2ccc(CC3CCC3)cc2c2cc(C(=O)NCc3ccc(S(=O)(=O)CC)cc3)ccc21` returned an EC50 in data set [2] of 12.6 nM.

Regarding `CCn1c2ccc(OC(C)C(F)(F)F)cc2c2cc(C(=O)NCc3ccc(S(=O)(=O)CC)cc3)ccc21` (stereo unspecified), in data set [1], the half-life at 1 µM stood at 19.9 min.

Regarding `CCn1c2ccc(OC(C)C)cc2c2cc(C(=O)NCc3ccc(S(C)(=O)=O)cn3)ccc21`, the half-life at 1 µM in data set [1] amounted to 17 min.

Take `CCn1c2ccc(OCC(C)C)cc2c2cc(C(=O)NCc3ccc(S(=O)(=O)CC)cc3)ccc21`: the half-life at 1 µM in data set [1] was determined as 20.4 min.

With `CCn1c2ccc(OC3CC3)cc2c2cc(C(=O)NCc3ccc(S(=O)(=O)CC)cc3)ccc21`, in data set [1], the half-life at 1 µM was 16.5 min.

As to `CCn1c2ccc(OC(C)C)cc2c2cc(C(=O)NC(CO)c3ccc(S(=O)(=O)CC)cc3)ccc21` (racemic), the half-life at 1 µM in data set [1] stood at 17.9 min.

Consider `CCn1c2ccc(CC3CC3)cc2c2cc(C(=O)NC(CO)c3ccc(S(=O)(=O)CC)cc3)ccc21` (racemic), for which the half-life at 1 µM in data set [1] is 41.4 min. Besides, in data set [2], the EC50 was determined as 14.7 nM.

Take `CCS(=O)(=O)c1ccc(C(COC)NC(=O)c2ccc3c(c2)c2cc(CC4CC4)ccc2n3CCF)cc1` (racemic): the half-life at 1 µM in data set [1] is 37.1 min. The EC50 came out at 28.3 nM in data set [2] and 348 nM in data set [3].

In the case of `CCn1c2ccc(CC3CC3)cc2c2cc(C(=O)NC(COC)c3ccc(S(=O)(=O)CC)cc3)ccc21` (racemic), the half-life at 1 µM in data set [1] was over 145 min.

As a reminder, the half-life is the time needed for the level to fall by half in the phase considered. One may read the EC50 as the concentration at which the effect is half-maximal. The term IC50 denotes the concentration that gives 50% inhibition.
